pIC50: −log10 of the molar value. Each block holds one molecule with its values, some of them ahead of it.
Columns and labels:
[1] = target: T1, Ubiquitin carboxyl-terminal hydrolase 7 (Homo sapiens, UniProt Q93009); test: Inhibition of full-length recombinant USP7 (unknown origin) expressed in Sf9 cells using Ub-EKL as substrate preincubated for 30 mins followed by substrate addition by fluorescence based assay
[2] = target: Ubiquitin carboxyl-terminal hydrolase 7 (Homo sapiens, UniProt Q93009, C223A); test: Inhibition of human full-length wild-type His-tagged catalytic USP7 […] expressed in baculovirus infected Sf9 cells using Ub-AMC as substrate preincubated for 30 mins followed by substrate addition measured after 1 hrs by fluorometric analysis
[3] = target: T1, Ubiquitin carboxyl-terminal hydrolase 7; test: Inhibition of USP7 (unknown origin) using human N-terminal GST-tagged UBA52 as substrate preincubated for 10 mins followed by substrate addition measured after 45 mins by coomassie brilliant blue staining-based SDS-PAGE analysis
[4] = target: T1, Ubiquitin carboxyl-terminal hydrolase 7; test: Inhibition of USP7 (unknown origin) using Ub-Rh110 as substrate by fluorescence based assay
[5] = target: T1, Ubiquitin carboxyl-terminal hydrolase 7; test: Inhibition of USP7 (unknown origin)
[6] = target: T1, Ubiquitin carboxyl-terminal hydrolase 7; test: Inhibition of human recombinant 6His-tagged USP7 using Ub-Rh110 as substrate preincubated for 30 mins followed by substrate addition measured after 180 mins by fluorometric analysis
[7] = Inhibition of mouse CD4+/CD25+ Treg cells-mediated suppression of CD3-stimulated T-effector cell proliferation after 72 hrs by CellTrace violet dye-based assay; type: functional
[8] = target: T1, Ubiquitin carboxyl-terminal hydrolase 7; test: Inhibition of full-length native C-terminal USP7 (unknown origin) using Ub-Rho110 as substrate after 1 hr by fluorescence assay
[9] = target: T1, Ubiquitin carboxyl-terminal hydrolase 7; test: Inhibition of USP7 in human SJSA cells assessed as increase in ubiquitinated MDM2 level after 20 hrs in presence of MG132 by MSD assay; type: cell-based
[10] = target: T2, Ubiquitin carboxyl-terminal hydrolase 2 (Homo sapiens, UniProt O75604); test: Inhibition of USP2 (unknown origin)
T2 sequence (O75604 whole entry): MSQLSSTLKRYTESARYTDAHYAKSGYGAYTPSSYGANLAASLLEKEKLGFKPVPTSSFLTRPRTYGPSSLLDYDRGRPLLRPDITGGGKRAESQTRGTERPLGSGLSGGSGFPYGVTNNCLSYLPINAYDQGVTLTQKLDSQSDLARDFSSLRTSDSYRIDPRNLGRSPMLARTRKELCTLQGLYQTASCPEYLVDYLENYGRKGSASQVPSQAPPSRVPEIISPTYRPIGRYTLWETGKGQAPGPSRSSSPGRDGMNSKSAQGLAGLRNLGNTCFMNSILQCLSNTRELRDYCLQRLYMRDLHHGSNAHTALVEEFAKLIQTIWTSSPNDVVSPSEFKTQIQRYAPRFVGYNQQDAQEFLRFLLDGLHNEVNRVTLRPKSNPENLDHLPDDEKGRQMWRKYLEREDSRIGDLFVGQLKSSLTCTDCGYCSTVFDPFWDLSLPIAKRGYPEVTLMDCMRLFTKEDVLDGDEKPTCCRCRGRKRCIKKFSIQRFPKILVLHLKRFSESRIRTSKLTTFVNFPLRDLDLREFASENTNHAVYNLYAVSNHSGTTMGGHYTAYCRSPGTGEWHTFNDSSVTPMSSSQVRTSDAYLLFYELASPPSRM

[11] = target: T3, Ubiquitin carboxyl-terminal hydrolase 47 (Homo sapiens, UniProt Q96K76); test: Inhibition of USP47 (unknown origin) using Ub-AMC as substrate preincubated for 20 mins followed by substrate addition measured after 50 mins
T3 sequence (Q96K76 whole entry): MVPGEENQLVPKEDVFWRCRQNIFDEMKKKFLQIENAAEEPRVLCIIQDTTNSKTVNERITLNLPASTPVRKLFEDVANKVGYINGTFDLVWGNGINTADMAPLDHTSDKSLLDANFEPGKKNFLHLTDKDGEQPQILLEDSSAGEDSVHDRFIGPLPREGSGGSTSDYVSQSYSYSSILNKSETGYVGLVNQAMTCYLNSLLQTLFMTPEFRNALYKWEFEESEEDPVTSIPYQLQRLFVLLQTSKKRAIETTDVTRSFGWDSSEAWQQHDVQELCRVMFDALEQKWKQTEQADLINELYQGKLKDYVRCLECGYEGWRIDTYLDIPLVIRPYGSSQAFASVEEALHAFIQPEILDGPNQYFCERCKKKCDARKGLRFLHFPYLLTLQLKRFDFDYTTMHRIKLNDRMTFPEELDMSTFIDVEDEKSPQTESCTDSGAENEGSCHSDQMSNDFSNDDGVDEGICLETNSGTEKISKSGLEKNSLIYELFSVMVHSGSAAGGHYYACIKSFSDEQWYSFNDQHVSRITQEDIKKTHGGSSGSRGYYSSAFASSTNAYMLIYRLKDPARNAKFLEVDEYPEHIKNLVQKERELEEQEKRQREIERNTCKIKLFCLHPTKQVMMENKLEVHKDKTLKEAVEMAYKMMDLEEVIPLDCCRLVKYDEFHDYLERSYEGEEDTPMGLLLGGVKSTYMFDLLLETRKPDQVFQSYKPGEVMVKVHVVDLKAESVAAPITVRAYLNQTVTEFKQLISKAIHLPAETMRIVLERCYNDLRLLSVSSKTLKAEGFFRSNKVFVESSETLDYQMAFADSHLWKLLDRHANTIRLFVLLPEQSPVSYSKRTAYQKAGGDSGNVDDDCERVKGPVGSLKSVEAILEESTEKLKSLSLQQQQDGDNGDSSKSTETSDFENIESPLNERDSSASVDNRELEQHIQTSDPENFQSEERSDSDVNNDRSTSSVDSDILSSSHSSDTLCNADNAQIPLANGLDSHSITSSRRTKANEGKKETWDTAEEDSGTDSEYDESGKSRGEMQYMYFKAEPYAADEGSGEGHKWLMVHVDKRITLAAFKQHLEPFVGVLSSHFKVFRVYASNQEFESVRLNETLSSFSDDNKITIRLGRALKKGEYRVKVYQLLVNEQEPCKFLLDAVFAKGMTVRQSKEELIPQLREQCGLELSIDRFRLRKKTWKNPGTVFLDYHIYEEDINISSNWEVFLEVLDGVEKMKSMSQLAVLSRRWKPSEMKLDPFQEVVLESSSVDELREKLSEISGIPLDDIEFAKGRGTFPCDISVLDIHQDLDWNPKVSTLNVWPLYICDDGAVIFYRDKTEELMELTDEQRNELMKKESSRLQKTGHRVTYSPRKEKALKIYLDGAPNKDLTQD

[12] = target: T1, Ubiquitin carboxyl-terminal hydrolase 7; test: Inhibition of full-length USP7 (unknown origin) using Ub-AMC as substrate preincubated for 20 mins followed by substrate addition measured after 50 mins

T1 sequence (Q93009 whole entry): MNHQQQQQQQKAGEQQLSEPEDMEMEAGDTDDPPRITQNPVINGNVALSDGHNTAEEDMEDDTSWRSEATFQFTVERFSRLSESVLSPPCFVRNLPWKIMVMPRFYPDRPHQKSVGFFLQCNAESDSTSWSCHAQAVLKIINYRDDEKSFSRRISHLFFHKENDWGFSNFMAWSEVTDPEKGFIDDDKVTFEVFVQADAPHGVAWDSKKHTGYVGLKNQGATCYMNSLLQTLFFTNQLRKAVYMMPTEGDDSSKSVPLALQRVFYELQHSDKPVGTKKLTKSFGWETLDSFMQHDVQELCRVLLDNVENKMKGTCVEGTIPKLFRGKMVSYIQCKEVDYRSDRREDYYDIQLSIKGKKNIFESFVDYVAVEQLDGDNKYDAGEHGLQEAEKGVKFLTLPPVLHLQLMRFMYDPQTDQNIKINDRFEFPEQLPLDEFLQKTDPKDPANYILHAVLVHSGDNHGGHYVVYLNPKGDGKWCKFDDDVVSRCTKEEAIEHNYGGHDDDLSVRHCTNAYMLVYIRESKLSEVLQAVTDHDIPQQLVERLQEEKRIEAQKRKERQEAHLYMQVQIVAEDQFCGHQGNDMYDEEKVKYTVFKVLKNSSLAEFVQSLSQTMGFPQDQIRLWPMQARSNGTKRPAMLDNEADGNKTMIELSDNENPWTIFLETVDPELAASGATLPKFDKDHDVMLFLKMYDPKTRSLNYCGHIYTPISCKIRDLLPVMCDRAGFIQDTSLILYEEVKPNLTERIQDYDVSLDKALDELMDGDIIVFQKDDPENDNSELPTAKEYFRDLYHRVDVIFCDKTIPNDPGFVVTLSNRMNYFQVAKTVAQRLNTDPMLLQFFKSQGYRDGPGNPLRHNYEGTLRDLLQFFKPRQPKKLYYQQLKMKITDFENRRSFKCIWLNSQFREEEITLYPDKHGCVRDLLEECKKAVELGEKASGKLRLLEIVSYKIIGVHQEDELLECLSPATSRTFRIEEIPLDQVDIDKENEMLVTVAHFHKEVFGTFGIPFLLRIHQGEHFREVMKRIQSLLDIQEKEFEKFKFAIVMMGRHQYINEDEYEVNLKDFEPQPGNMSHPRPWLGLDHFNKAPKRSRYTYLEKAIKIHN
Ubiquitin carboxyl-terminal hydrolase 7 (Homo sapiens, UniProt Q93009, C223A), sequence (Q93009 whole entry C223A): as the sequence (Q93009 whole entry) above, with C223A counted along it

SMILES: CN(CCCNC(=O)c1ccc2nc3c(c(Cl)c2c1)CCCC3)Cc1ccccc1
- pIC50 [2]: 4.55

SMILES: CC1=CS(=O)(=O)c2cc(NC(=O)c3cc([N+](=O)[O-])c(Sc4c(Cl)cncc4Cl)s3)ccc21
- pIC50 [5]: 6.77

SMILES: C[C@@]12CCCc3coc(c31)C(=O)c1cc3c(=O)c4c(c(=O)c3cc12)c1c(=O)c2cc3c(cc2c(=O)c1c1c(=O)c2cc5c(cc2c(=O)c41)[C@]1(C)CCCc2coc(c21)C5=O)[C@]1(C)CCCc2coc(c21)C3=O
- pIC50 [6]: 6.12

SMILES: COC(=O)/C=C/CNC(=O)c1cc([N+](=O)[O-])c(Sc2cccc(Cl)c2Cl)s1
- pIC50 [7]: 6.24

SMILES: CC1CS(=O)(=O)c2cc(NC(=O)c3cc([N+](=O)[O-])c(Sc4c(Cl)cncc4Cl)s3)ccc21 (centres undefined)
- pIC50 [5]: 7.12

SMILES: CC(=O)c1cnc(Sc2c(Cl)cncc2Cl)s1
- pIC50 [5]: 4.65

SMILES: C[C@@]12CCCc3coc(c31)C(=O)c1cc3c(cc12)C(=O)C=C(C1=CC(=O)c2cc4c(cc2C1=O)C(=O)c1occ2c1[C@@]4(C)CCC2)C3=O
- pIC50 [6]: 6.31

SMILES: O=C(Nc1ccc2c(c1)S(=O)(=O)C=C2)c1cc([N+](=O)[O-])c(Sc2c(Cl)cncc2Cl)s1
- pIC50 [5]: 7.00

SMILES: C[C@H]1[C@H](C)CC[C@]2(C(=O)O)CC[C@]3(C)C(=CC[C@@H]4[C@@]5(C)CC[C@H](O)C(C)(C)[C@@H]5CC[C@]43C)[C@H]12 [URSOLIC ACID]
- pIC50 [11]: 4.59
- pIC50 [12]: 5.15

More lines, now with the values ahead:

- pIC50 [1]: < 4.30
SMILES: CC(=O)c1cc([N+](=O)[O-])c(Sc2ccccc2)s1

- pIC50 [3]: 4.60
SMILES: COC(=O)[C@]12CCC(C)(C)C[C@H]1[C@H]1C(=O)C=C3[C@@]4(C)CC(C#N)C(=O)C(C)(C)[C@@H]4CC[C@@]3(C)[C@]1(C)CC2 (some centres undefined)

- pIC50 [4]: 6.00 to 6.70
SMILES: CC(CC(=O)N1CCC(O)(C(C)n2cnc3c(cnn3C)c2=O)CC1)c1ccccc1 (centres undefined)

- pIC50 [5]: 6.89
SMILES: O=C(Nc1ccc2c(c1)S(=O)(=O)CC2)c1cc([N+](=O)[O-])c(Sc2c(Cl)cncc2Cl)s1

- pIC50 [4]: 6.00 to 6.52
SMILES: CCCc1cc2c(=O)n(C(C)C3(O)CCN(C(=O)CC(C)c4ccccc4)CC3)cnc2s1 (centres undefined)

- pIC50 [5]: 5.09
SMILES: O=C(Nc1cccc(CN2CCCC2)c1)c1ccc2nc3c(c(Cl)c2c1)CCCC3

- pIC50 [4]: 6.00 to 6.70
SMILES: CC(CC(=O)N1CCC(O)(C(C)n2cnn3cccc3c2=O)CC1)c1ccccc1 (centres undefined)

- pIC50 [4]: > 6.30
SMILES: CC(CC(=O)N1CCC(O)(C(C)n2cnc3cc[nH]c3c2=O)CC1)c1ccccc1 (centres undefined)

- pIC50 [8]: < 4.20
- pIC50 [9]: 5.70
SMILES: CCc1c(-c2ccc3c(cnn3C)c2)cnc(N)c1-c1ccc(O)cc1

- pIC50 [5]: 6.70
SMILES: CN(C)CCCNC1CS(=O)(=O)c2cc(NC(=O)c3cc([N+](=O)[O-])c(Sc4c(Cl)cncc4Cl)s3)ccc21 (centres undefined)

- pIC50 [4]: > 6.70
SMILES: CC(=O)Nc1ccc2c(=O)n(C(C)C3(O)CCN(C(=O)CC(C)c4ccccc4)CC3)cnc2c1 (centres undefined)

- pIC50 [10]: 4.66
SMILES: COC(=O)[C@]12CCC(C)(C)C[C@H]1[C@H]1C(=O)C=C3[C@@]4(C)C=C(C#N)C(=O)C(C)(C)[C@@H]4CC[C@@]3(C)[C@]1(C)CC2 [BARDOXOLONE METHYL]

- pIC50 [6]: 6.89
SMILES: C[C@@]12CCCc3coc(c31)C(=O)c1cc3c(cc12)C(=O)C=CC3=O [XESTOQUINONE]

Source: ChEMBL document CHEMBL4118084, “Chemical Approaches to Intervening in Ubiquitin Specific Protease 7 (USP7) Function for Oncology and Immune Oncology Therapies” (J Med Chem, 2018)
